{"source": "patent US7964591B2", "about": "“Pyridazine derivatives and their use as therapeutic agents” (Novartis Pharma AG, priority 2003, dated 2011)", "assay_type_in_all_cases": "in vivo, female Crl:NMRI mice", "key": {"sebaceous glands [1]": {"tested_on": "sebaceous glands", "assay": "Topical LCF369 on sebaceous glands of NMRI mice: clinical service form candidates (0.5% formulations)", "procedure": "(§1) LCF369 is prepared either in a solution of ethanol/propylene glycol (3/7, v/v) or in topical formulations at 1.0, 0.5 or 0.1% for testing in female Crl:NMRI mice. In general, shaved application sites of approximately 2.5 cm^2 on the back of mice are treated twice daily (once on weekends or at study termination) with 50 μl of the LCF369 preparations. To prevent the animals from potential oral uptake of the epicutaneously applied compounds, they are fitted with ruffs and housed individually. After the last application, the animals are euthanised; the treated sites dissected and prepared for histological sections. […] The entire sections of approximately 10 mm length are evaluated microscopically (200×) for sebaceous glands. The mean size and mean number (per mm^2 dermis) of sectioned alveolar units of the sebaceous glands are determined in a coded fashion with an image analyzer (Axiovision, Zeiss). For statistical analysis, morphometric data are analyzed with a T-test or Mann-Whitney rank sum test. […]\nThree different formulations containing 0.5% LCF369 are tested; i) emulsion gel with the penetration enhancer Sepa 09 (batch 92.66.01-ra), ii) emulsion gel without a penetration enhancer (batch 9450-05-Ra), and iii) a formulation containing particulate compound (“follicular targeting formulation”). They are evaluated after 9 or 13 applications."}, "sebaceous glands [2]": {"tested_on": "sebaceous glands", "assay": "Topical LCF369 on sebaceous glands of NMRI mice: evaluation of efficacy", "procedure": "(§2) LCF369 is prepared either in a solution of ethanol/propylene glycol (3/7, v/v) or in topical formulations at 1.0, 0.5 or 0.1% for testing in female Crl:NMRI mice. In general, shaved application sites of approximately 2.5 cm^2 on the back of mice are treated twice daily (once on weekends or at study termination) with 50 μl of the LCF369 preparations. To prevent the animals from potential oral uptake of the epicutaneously applied compounds, they are fitted with ruffs and housed individually. After the last application, the animals are euthanised; the treated sites dissected and prepared for histological sections. Hematoxilin/eosin (HE)-stained 3 μm-thick sections are prepared from formalin-fixed, paraffin-embedded tissue. From each animal, one HE-stained section per site is histomorphometrically examined. The entire sections of approximately 10 mm length are evaluated microscopically (200×) for sebaceous glands. The mean size and mean number (per mm^2 dermis) of sectioned alveolar units of the sebaceous glands are determined in a coded fashion with an image analyzer (Axiovision, Zeiss). For statistical analysis, morphometric data are analyzed with a T-test or Mann-Whitney rank sum test. Frozen tissue sections (5 μm) are used for oil red O (lipid) staining.\nGroups of 5 mice are treated with 50 μl of 1% or 0.1% LCF369 twice daily (except on weekends, when the animals are treated once daily and on study termination) for 8 days (i.e. 14 applications in total). Four control animals are treated similarly with the vehicle alone. In life, the animals are observed for clinical signs and macroscopic changes of the application sites. One day after the last application, an evaluation is performed. In animals treated with 1.0% LCF369, untreated skin samples distant from the treated sites are also collected in order to assess systemic activity due to percutaneous absorption of LCF369."}, "sebaceous glands [3]": {"tested_on": "sebaceous glands", "assay": "Topical LCF369 on sebaceous glands of NMRI mice: minimal effective concentration", "details": "LCF369 1.0% (w/v) twice daily, 7 days, mean (SD), 6 animals", "procedure": "as §2\nLCF369 is tested at 1.0%, 0.5% and 0.1%, groups of 6 mice are treated twice daily for 7 consecutive days. […]"}, "sebaceous glands [4]": {"tested_on": "sebaceous glands", "assay": "Topical LCF369 on sebaceous glands of NMRI mice: minimal treatment period", "details": "for mean size decrease: 1.0% LCF369 twice daily, vs vehicle", "procedure": "as §2\nGroups of 4 mice are treated with 1.0% LCF369 twice daily for 2, 4, 6 and 8 days (i.e. up to 16 applications). Control groups remain untreated or are treated with the vehicle alone twice daily for 8 days."}, "sebaceous glands [5]": {"tested_on": "sebaceous glands", "assay": "Topical LCF369 on sebaceous glands of NMRI mice: duration of action", "procedure": "as §1, with “sections. Hematoxilin/eosin (HE)-stained 3 μm-thick sections are prepared from formalin-fixed, paraffin-embedded tissue.” for “sections.”\nA 7-day b.i.d. (twice daily) treatment schedule (except on week ends when the animals were treated once daily) with 1.0% LCF369 is applied to groups of 7 mice which are evaluated on days 8 (one day after the 14th application), 24 and 41. […]"}, "[6]": {"details": "LCF369-treated vs vehicle-treated skin"}}, "note": "Marks after values point to notes of the source that are not given here."}
{"smiles": "O=C(NCCC1CC1)c1ccc(N2CCN(C(=O)c3cc(F)ccc3C(F)(F)F)CC2)nn1", "note": "[LCF369, 6-[4-(5-Fluoro-2-trifluoromethylbenzoyl)piperazin-1-yl]pyridazine-3-carboxylic acid (2-cyclopropylethyl)amide]", "values": [{"measurement": "hyper/parakeratosis and acanthosis in skin sections", "setting": "sebaceous glands [1]; 0.5% LCF369 formulation containing SEPA-9 vs placebo-treated (vehicle-treated) samples", "result": "more pronounced"}, {"measurement": "effect on sebaceous glands", "setting": "sebaceous glands [1]; 0.5% LCF369 formulation containing penetration enhancer SEPA-9", "result": "significant atrophy of sebaceous glands"}, {"measurement": "atrophogenic effects", "setting": "sebaceous glands [2]; 0.1% LCF369, 8 days", "result": "little or no atrophogenic effects"}, {"measurement": "reduction of sebaceous glands in sizes (fold)", "setting": "sebaceous glands [2]; 1.0% LCF369, 8 days, p<0.01", "result": "about 1.9 fold"}, {"measurement": "differences in numbers and sizes of sebaceous glands at sites distant from the treatments", "setting": "sebaceous glands [2]; 1.0% LCF369, distant sites", "result": "no significant differences"}, {"measurement": "histochemical (HE) staining of treated skin, FIG. 2B", "setting": "sebaceous glands [2]; [6]", "result": "fewer and smaller (atrophic) sebaceous glands"}, {"measurement": "oil red O (lipid) staining of treated skin, FIG. 3B", "setting": "sebaceous glands [2]; [6]", "result": "significantly reduced lipids associated with hair shafts"}, {"measurement": "Number of sebaceous glandular units", "setting": "sebaceous glands [3]", "result": "10.1 (4.0)*** per mm^2 dermis"}, {"measurement": "mean size decrease", "setting": "sebaceous glands [4]; after 4 days", "result": 35, "unit": "%"}, {"measurement": "mean size decrease", "setting": "sebaceous glands [4]; after 6 days", "result": 35, "unit": "%"}, {"measurement": "mean size decrease", "setting": "sebaceous glands [4]; after 8 days", "result": 72, "unit": "%"}, {"measurement": "Maximum reduction in sizes and numbers of sebaceous glands", "setting": "sebaceous glands [4]; topical application, compared to untreated skin", "result": "up to 75%"}, {"measurement": "atrophogenic effect from LCF369 treatment", "setting": "sebaceous glands [5]; 1% LCF369, on day 24", "result": "substantially reduced"}, {"measurement": "atrophogenic effect from LCF369 treatment", "setting": "sebaceous glands [5]; 1% LCF369, on day 41", "result": "almost completely absent"}]}
